Reference: patent US20100099731A1, “Use of Endothelial Interrupters in the Treatment of Neurodegenerative Diseases” (Texas Tech University System, priority 2008, published 2010)
Entries after “also recorded” stand apart in the source; their conditions may differ.

Assays:
[1] = approved treatments for AD; cited from earlier work
[2] = tested on: AD transgenic mouse APPSWE 2576; experiment: Radial arm maze, AD transgenic mice treated with Sunitinib malate; format: in vivo; conditions: Sunitinib malate 40 mg/kg daily in diet; vs untreated AD mice receiving vehicle; p<0.05
[3] = tested on: brain-derived endothelial cells (EC150); experiment: MMP-9 release from brain endothelial cells, indirect ELISA; format: cell-based; conditions: 0-500 nM Sunitinib malate, 4 h; p<0.001 vs cells without drug
Endothelial cells [4] = experiment: Menadione-induced MMP-9 release from endothelial cells, indirect ELISA; format: cell-based
Endothelial cells [5] = experiment: Menadione-mediated TNF-α release from endothelial cells, indirect ELISA; format: cell-based; conditions: 500 nM Sunitinib malate 4 h prior to (Pre), simultaneously (Co) or after (Post) 4 h menadione 25 μM
[6] = In vivo cognition with acetaminophen; conditions: in vivo work
[7] = tested on: rat brain endothelial cells; experiment: Cell viability (MTT) of brain endothelial cells challenged with menadione; conditions: acetaminophen pretreatment, then 25 μM menadione 2-3 h; p<0.001 vs cells without acetaminophen
Method: Cell viability was determined with MTT assay. Number of viable cells in untreated cells (control) was defined as 100%. Data are mean±SD of 3 separate experiments.

Rats [8] = experiment: Infusion of human apolipoprotein-E4 into rats; format: in vivo, rat; conditions: 0.6 ng/hr, i.c.v., 56 days
[9] = tested on: cultured brain endothelial cells; experiment: IL-1β and TNFα expression in brain endothelial cells treated with TGF-β, ELISA and western blot; format: cell-based; conditions: vs untreated endothelial cells
Text: Cerebrovascular TGF-β contributes to inflammation in the AD brain. TGF-β plays a central role in the response of the brain to injury and is increased in the brain in AD. In this study, we determined whether expression of TGF-β was abnormal in the microvasculature in AD and whether TGF-β affected vascular production of pro-inflammatory cytokines, IL-1β and TNFα. Results from western blot analysis and ELISA indicated a higher level of TGF-β in AD vessels compared to controls. To determine whether TGF-β affects vascular release of inflammatory factors, cultured brain endothelial cells were treated with TGF-β and levels of IL-1β and TNFα determined. […] Studies have shown that TGF-β mediated signaling is critical to controlling the “angiogenic switch”.

thrombin = thrombin (Homo sapiens, UniProt P00734); experiment: ApoE4 fragment generation by endothelial cell conditioned media, western blot; format: biochemical; conditions: conditioned medium incubated with apoE4 for 24 h
Method: Injured endothelial cells release thrombin and generate neurotoxic apolipoprotein E fragments. The objective of this study was to determine if injured brain endothelial cells could be a source of thrombin and neurotoxic apoE fragments. Brain endothelial cells were injured by oxidant and/or inflammatory stress. This was accomplished by incubating cultured endothelial cells with either, sodium nitroprusside (SNP), inflammatory cocktail (LPS, […], IL-6, IFN-γ, TNFα) or both for 24 h. The conditioned medium was then (a) analyzed for thrombin using a chromogenic thrombin activity assay, (b) incubated with apoE4 for 24 h and then analyzed by western blot for detection of apoE4 fragments, or (c) incubated with apoE4 and added to neuronal cultures for 24 h. […] This pattern was consistent with that observed using purified thrombin and was inhibited by the thrombin inhibitor hiruidin.

Rats [10] = experiment: Intracerebroventricular thrombin infusion in rats, radial eight-arm maze and neuropathology; format: in vivo, rat
Method: Thrombin, a mediator of neurotoxicity and memory impairment. Thrombin has been found in neuritic plaques in AD. Also, traumatic brain injury, where neurons are exposed to high thrombin levels is associated with an increased incidence of AD. Our objective was to determine the effects of thrombin administered in vivo on cognitive function and neuropathology. Rats were trained using a radial eight-arm maze and then thrombin (25 or 100 nM, […], 28 days) or vehicle was delivered via intra cerebroventricular infusion. […] Thrombin-induced changes in cognitive function and ventricular enlargement were inhibited by hirudin.

Rats [11] = experiment: Intracerebroventricular thrombin infusion in rats, apolipoprotein-E levels; format: in vivo, rat; conditions: thrombin 100 nM, 0.25 microl/hr, 28 days, i.c.v.; vs vehicle, p<0.001
Text: Chronic thrombin exposure results in an increase in apolipoprotein-E levels. Studies have shown that individuals with both a history of traumatic brain injury and inheritance of apolipoprotein E-4 (ApoE4) allele are associated with a poor neurologic outcome and an increased risk for Alzheimer's disease. We assessed the hypothesis that thrombin released during brain injury causes an increase in apolipoprotein-E levels and such increase in the levels of apolipoprotein-E4 isoform may have amyloidogenic effects. Rats received either thrombin (100 nM, 0.25 microl/hr, 28 days) or vehicle via intracerebroventricular infusion. […] Such increase in Apolipoprotein-E4 isoform facilitates beta-amyloid deposition and cognitive deficits (Reference, item # 9).

[12] = tested on: cultured brain endothelial cells; experiment: TIMP expression in cultured brain endothelial cells; format: cell-based
Text: Angiogenic proteins are expressed by brain blood vessels in AD. Data are emerging to support the idea that mediators of angiogenesis are found in the AD brain. The objective of this study is to compare the expression of the angiogenic mediator's vascular endothelial growth factor (VEGF), angiopoietin, and matrix metalloproteinases (MMPs) in the microcirculation of AD patients and age-matched controls. […] AD-derived microvessels also release higher levels of MMP-2 and MMP-9 compared to controls. […] In this regard we find high levels of the tissue inhibitor of matrix metalloproteinases-1 (TIMP-1) in AD, but not control vessels.

[13] = tested on: cultured brain endothelial cells; experiment: HIF1-α expression in cultured brain endothelial cells; format: cell-based
Text: Thrombin and inflammatory proteins are elevated in Alzheimer's disease microvessels: Implications for disease pathogenesis. […] The objective of this study is to determine whether levels of neurotoxic (thrombin) and inflammatory proteins (IL-8; integrins αvβ3 and αvβ5) are altered in microvessels isolated from AD patients compared to levels in vessels obtained from non-demented age-matched controls. We also evaluate expression, in AD and control microvessels, of the transcription factor hypoxiainducible factor 1-α (HIF1-α), which regulates pro-inflammatory gene expression, and the regulation of HIF1-α expression by thrombin in cultured brain endothelial cells.

[14] = tested on: Rat neuronal cortical cell cultures; conditions: thrombin 100 nM or SNP 10 μM, 24 h
[15] = rats, thrombin intra cerebroventricular infusion
[16] = 100 nM thrombin, 0.25 μg/h, 28 days, intra cerebroventricular infusion

Molecule: CC12CC3CC(C)(C1)CC(N)(C3)C2 [Memantine]
- Side Effects [1]: Headache, constipation.

Molecule: CCN(CC)CCNC(=O)c1c(C)[nH]c(/C=C2\C(=O)Nc3ccc(F)cc32)c1C [Sunitinib malate, Butanedioic acid, hydroxy-, (2S)-, compound with N[2-(diethylamino)ethyl]-5-[(Z)-(5-fluoro-1,2-dihydro-2-oxo-3H-indol-3-ylidine)methyl]-2,4-dimethyl-1H-pyrrole-3-carboxamide (1:1)]
- cognitive performance: total number of arm entries to complete the 8 arm radial arm maze [2]: progressively require fewer arm entries to complete an 8 arm radial arm maze; also recorded: perform significantly (p<0.05) better than AD mice not receiving the drug
- release of matrix metalloproteinase-9 (MMP-9) [3]: significantly decreased release of matrix metalloproteinase-9 (MMP-9)
- menadione-induced release of MMP-9 (Endothelial cells [4]; 500 nM Sunitinib malate 4 h prior to (Pre), simultaneously (Co) or after (Post) 4 h menadione 25 μM): decreased release of both MMP-9; also recorded: significantly decreased release of MMP-9
- menadione-mediated release of TNF-α (Endothelial cells [5]): decreased release of both MMP-9 (FIG. 4) and TNFα; also recorded: decreased menadione-mediated release of TNF-α

Molecule: CC(=O)Nc1ccc(O)cc1 [acetaminophen, 4′-hydroxyacetanilide]
- cognition [6]: improved cognition
- cell survival (MTT) [7]: significant increase in cell survival; also recorded: Cell survival increases significantly

Molecule: CC1=CC(=O)c2ccccc2C1=O [menadione]
- release of MMP-9 and TNFα (Endothelial cells [4]; brain endothelial cells exposed to menadione): increased release of both MMP-9 and the inflammatory cytokine TNFα

Molecule: ApoE4: human apolipoprotein-E4 isoform infused i.c.v. into rats
- beta-amyloid deposition and GFAP-positive astrocytes (Rats [8]): beta-amyloid deposition and increased the number of GFAP-positive astrocytes
- spatial memory (Rats [8]): significant spatial memory deficits

Molecule: TGF-β
- endothelial expression of IL-1β and TNFα [9]: robust endothelial expression of these factors

Molecule: hirudin
- generation of apoE4 fragments (20-29 kDa) by endothelial cell conditioned media (thrombin): inhibited
- thrombin-induced changes in cognitive function (Rats [10]; [15]): inhibited
- thrombin-induced ventricular enlargement (Rats [10]; [15]): inhibited

Molecule: thrombin
- cognitive function (Rats [10]; [16]): cognitive impairments including deficits in reference memory and an increase in task latency
- neuropathology (Rats [10]; [16]): enlargement of cerebral ventricles, an increased number of TUNEL-positive cells, astrogliosis, and an increase in the immunoreactivity for phosphorylated neurofilament, and apolipoprotein-E fragments
- apolipoprotein-E levels in hippocampus (Rats [11]): increased apolipoprotein-E levels in hippocampus
- TIMP-1 expression [12]: up regulation of TIMP-1
- HIF1-alpha expression [13]: increased expression of HIF1-alpha
- cyclin D1 mRNA expression [14]: increase in cyclin D1 expression
- neuronal apoptosis (nucleosome ELISA) [14]: evoke neuronal cell death
